From PMC7055688 (Journal of fluorine chemistry, 2019)
Values after ≈ are worked out from the molar mass of the structure shown.

How the values were obtained:
[1] = experimental LogP by HPLC-MS; assay type: physicochemical
[2] = solubility in sodium phosphate buffer; assay type: physicochemical; settings: pH 7.4, aqueous buffer, kinetic from dmso stock
[3] = target: T1, human sEH (Homo sapiens, UniProt P34913); assay: kinetic fluorescent assay of sEH inhibitory potency; assay type: biochemical; settings: for fold drop of activity compared to 3a: ratio of IC50 to that of 3a; for fold increase of activity compared to 3a: ratio of IC50 of 3a to that of the compound
T1 sequence (P34913 1-555): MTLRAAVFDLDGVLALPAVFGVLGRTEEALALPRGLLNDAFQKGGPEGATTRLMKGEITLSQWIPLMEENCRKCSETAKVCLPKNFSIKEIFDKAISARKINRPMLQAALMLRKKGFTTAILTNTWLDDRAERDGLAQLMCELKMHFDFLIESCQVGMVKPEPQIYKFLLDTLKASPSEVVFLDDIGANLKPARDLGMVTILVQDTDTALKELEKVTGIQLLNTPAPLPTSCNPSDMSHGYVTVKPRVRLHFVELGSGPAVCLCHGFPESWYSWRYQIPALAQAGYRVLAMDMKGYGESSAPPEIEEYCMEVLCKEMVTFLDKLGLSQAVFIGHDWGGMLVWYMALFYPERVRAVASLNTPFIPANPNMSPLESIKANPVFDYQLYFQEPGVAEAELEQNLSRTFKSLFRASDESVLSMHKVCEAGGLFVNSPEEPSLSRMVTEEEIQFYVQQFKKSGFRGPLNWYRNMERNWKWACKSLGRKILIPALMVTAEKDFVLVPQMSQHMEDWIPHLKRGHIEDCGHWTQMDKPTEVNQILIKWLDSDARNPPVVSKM

| Compound | chromatographic logP [1] | solubility [2] | fold more active than 2-hydroxy substituted analog [3] | fold more active than unsubstituted 1-(adamantan-1-yl)-3-phenyl urea [3] | fold drop of activity compared to 3a [3] | fold increase of activity compared to 3a [3] |
| --- | --- | --- | --- | --- | --- | --- |
| O=C(Nc1ccccc1F)NC12CC3CC(CC(C3)C1)C2 [3a, 1-(Adamantan-1-yl)-3-(2-fluorophenyl) urea] | – | 70 to 80 µM (≈ 20.2 to 23.1 µg/mL) | 37 fold | 4 fold | – | – |
| CC(NC(=O)Nc1ccccc1F)C12CC3CC(CC(C3)C1)C2 (stereo not shown) [3c, 1-[1-(Adamantan-1-yl)ethyl]-3-(2-fluorophenyl) urea] | 4.75 | 50 to 60 µM (≈ 15.8 to 19 µg/mL) | – | – | 15 fold | – |
| O=C(Nc1ccccc1F)NC1C2CC3CC(C2)CC1C3 (stereo not shown) [3i, 1-(Adamantan-2-yl)-3-(2-fluorophenyl) urea] | – | 80 to 90 µM (≈ 23.1 to 26 µg/mL) | – | – | – | 3.7 fold |
| CCC(CC12CC3CC(CC(C3)C1)C2)NC(=O)Nc1ccccc1F (stereo not shown) [3d, 1-[1-(Adamantan-1-yl)butane-2-yl]-3-(2-fluorophenyl) urea] | 5.8 | 50 to 60 µM (≈ 17.2 to 20.7 µg/mL) | – | – | 170 fold | – |
| CC12CC3(C)CC(C)(C1)CC(NC(=O)Nc1ccccc1F)(C2)C3 [3h, 1-[3,5,7-trimethyl(Adamantan-1-yl)]-3-(2-fluorophenyl) urea] | – | 70 to 80 µM (≈ 23.1 to 26.4 µg/mL) | – | – | 25 fold | – |

Results, then the compound that gave them:

| chromatographic logP [1] | solubility [2] | fold more active than 2-hydroxy substituted analog [3] | fold more active than unsubstituted 1-(adamantan-1-yl)-3-phenyl urea [3] | fold drop of activity compared to 3a [3] | fold increase of activity compared to 3a [3] | Compound |
| --- | --- | --- | --- | --- | --- | --- |
| 4.4 | 60 to 70 µM (≈ 18.1 to 21.2 µg/mL) | – | – | – | – | O=C(NCC12CC3CC(CC(C3)C1)C2)Nc1ccccc1F [3b, 1-[(Adamantan-1-yl)methyl]-3-(2-fluorophenyl) urea] |
| – | 80 to 90 µM (≈ 29.2 to 32.8 µg/mL) | – | – | – | – | O=C(Nc1ccc(C23CC4CC(CC(C4)C2)C3)cc1)Nc1ccccc1F [3e, 1-[4-(Adamantan-1-yl)phenyl]-3-(2-fluorophenyl) urea] |
| – | 50 to 60 µM (≈ 15.1 to 18.1 µg/mL) | – | – | – | 2.5 fold | CC12CC3CC(C1)CC(NC(=O)Nc1ccccc1F)(C3)C2 [3f, 1-[3-methyl(Adamantan-1-yl)]-3-(2-fluorophenyl) urea] |
| 6.55 | – | – | – | – | – | CCCC(CNC(=O)Nc1ccccc1F)C1C2CC3CC(C2)CC1C3 (stereo not shown) [3j, 1-[2-(Adamantan-2-yl)pentane-1-yl]-3-(2-fluorophenyl) urea] |
